Structures can show the parent of a compound that is named as a salt.
Target: HPK1 (Homo sapiens (Human), UniProt Q92918, S171E/T165E)
Test: HPK1-FL HTRF Enzymatic Assay (HTRF)
Assay type: biochemical
Details: HPK full length T165E S171E 0.125 nM, ATP 1 mM, Biotin-SLP76 100 nM, read-out: HPK1 Ki (nM), H = HTRF
Procedure: Exemplary compounds of Formula (I) were tested to assess compound inhibition of HPK-1. The Ki for each exemplary compound was determined
Example B1: HPK1-FL HTRF Enzymatic Assay (“HTRF”)
HPK-FL enzyme phosphorylates Biotin-SLP-76 substrate in the presence of ATP at 1 mM and varying concentrations of test compound. Product is detected by FRET using Eu-anti-pSLP76 Ab and SA-XL665. Also see www.cisbio.com/HTRF for additional HTRF technology information.
• Echo555 compound dispenser • Agilent Bravo • Perkin Elmer Envision Final Assay Conditions:
Materials: • Assay plate: White ProxiPlate 384 F (PerkinElmer cat #6008289) • Kinase: HPK full length double mutant • Substrate: Biotin-SLP76 • ATP: 100 mM ATP • BSG: 2% BSG • DMSO: DMSO (Sigma cat #34869-100ML) • Reaction Buffer: H2O/50 mM HEPES, pH 7.5/10 mM MgCl2/2 mM TCEP/0.01% Brij-35/0.01% BSG • Detection mix:Eu-anti-pSLP76/SA-XL665 (Cisbio, #610SAXAC) Assay Procedure Ki determination:
To a 384 well Proxiplate with 80 nL compound or DMSO spotted on was added 4 μl/well kinase mix. The mixture was preincubated for 30 minutes and then 4 μl/well substrate mix was added. The solution was incubated for 60 min and then 4 μl/well detection mix was added. The solution was incubated for another 60 min. The plates were then loaded onto a Perkin Elmer Envision and the TR-FRET signal was measured at 615 and 665 nm. A ratio of […] was used to calculate the % activity at each concentration of compound.

HPK1, sequence (Q92918 whole entry T165E/S171E): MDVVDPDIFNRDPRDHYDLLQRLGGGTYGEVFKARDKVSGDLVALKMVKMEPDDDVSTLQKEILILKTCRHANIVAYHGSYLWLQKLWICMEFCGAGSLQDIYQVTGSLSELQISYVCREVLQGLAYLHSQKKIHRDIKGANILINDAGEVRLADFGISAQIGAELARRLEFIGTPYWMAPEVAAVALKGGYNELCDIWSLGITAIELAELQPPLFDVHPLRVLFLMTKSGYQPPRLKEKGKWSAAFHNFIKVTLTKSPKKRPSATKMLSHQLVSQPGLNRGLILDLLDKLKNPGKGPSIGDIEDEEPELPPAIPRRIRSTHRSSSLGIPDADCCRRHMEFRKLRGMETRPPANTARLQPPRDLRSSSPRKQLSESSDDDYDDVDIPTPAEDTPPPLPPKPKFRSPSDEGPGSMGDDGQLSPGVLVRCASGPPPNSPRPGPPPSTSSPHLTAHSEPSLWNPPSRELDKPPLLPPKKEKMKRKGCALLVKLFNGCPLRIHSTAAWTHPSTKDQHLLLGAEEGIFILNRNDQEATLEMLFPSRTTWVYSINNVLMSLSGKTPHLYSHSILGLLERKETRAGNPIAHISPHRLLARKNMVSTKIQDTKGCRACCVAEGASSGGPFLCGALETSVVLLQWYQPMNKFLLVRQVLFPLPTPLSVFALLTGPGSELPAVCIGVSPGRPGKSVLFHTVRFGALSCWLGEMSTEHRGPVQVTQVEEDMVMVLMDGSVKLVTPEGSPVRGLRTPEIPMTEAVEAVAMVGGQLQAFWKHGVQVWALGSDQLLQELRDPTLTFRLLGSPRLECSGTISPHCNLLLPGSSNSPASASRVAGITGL

Row | Structure (SMILES) | Ki
1 | Cc1ncc(-c2cc3cc(Nc4cc5n(n4)CC(=O)N(C(C)C)CC5F)ncc3cc2F)c(C)c1N (racemic) [Compound 150, (+/-)-2-((6-(5-amino-4,6-dimethylpyridin-3-yl)-7-fluoroisoquinolin-3-yl)amino)-4-fluoro-6-isopropyl-5,6-dihydro-4H-pyrazolo[1,5-d][1,4]diazepin-7(8H)-one] | 0.15 nM
2 | Cc1c(N)cncc1-c1cc2cc(Nc3cc4n(n3)Cc3nccn3CC4O)ncc2c(F)c1F (racemic) [Compound 170, (+/−)-8-((6-(5-amino-4-methylpyridin-3-yl)-7,8-difluoroisoquinolin-3-yl)amino)-5,6-dihydro-11H-imidazo[1,2-a]pyrazolo[1,5-d][1,4]diazepin-6-ol] | 0.035 nM
3 | Cc1c(-c2cc3cc(Nc4cc5n(n4)CC(=O)NCC5)ncc3cc2F)cnc2c1NC(C)CO2 (racemic) [Compound 182, (+/−)-2-((6-(2,8-dimethyl-2,3-dihydro-1H-pyrido[2,3-b][1,4]oxazin-7-yl)-7-fluoroisoquinolin-3-yl)amino)-5,6-dihydro-4H-pyrazolo[1,5-d][1,4]diazepin-7(8H)-one] | 0.073 nM
4 | Cc1c(-c2cc3cc(Nc4cc5n(n4)CC(=O)NCC5)ncc3cc2F)cnc2c1NCC(C)O2 (racemic) [Compound 184, (+/−)-2-((6-(3,8-dimethyl-2,3-dihydro-1H-pyrido[2,3-b][1,4]oxazin-7-yl)-7-fluoroisoquinolin-3-yl)amino)-5,6-dihydro-4H-pyrazolo[1,5-d][1,4]diazepin-7(8H)-one] | 0.018 nM
5 | Cc1c(-c2cc3cc(Nc4cc5n(n4)Cc4nccn4CC5)ncc3cc2F)cnc2c1NCC[S+]2[O-] (racemic) [Compound 189, (+/−)-7-(3-((5,6-dihydro-11H-imidazo[1,2-a]pyrazolo[1,5-d][1,4]diazepin-8-yl)amino)-7-fluoroisoquinolin-6-yl)-8-methyl-2,3-dihydro-1H-pyrido[2,3-b][1,4]thiazine 4-oxide] | 0.48 nM
6 | Cc1c(N)cncc1-c1cc2cc(Nc3cc4n(n3)C[S+]([O-])CC4)ncc2cc1F (racemic) [Compound 191, (+/-)-2-((6-(5-amino-4-methylpyridin-3-yl)-7-fluoroisoquinolin-3-yl)amino)-4,5-dihydro-7H-pyrazolo[1,5-c][1,3]thiazine 6-oxide] | 2.6 nM
7 | Cc1c(-c2cc3cc(Nc4cc5n(n4)CC(=O)NCC5)ncc3cc2F)cnc2c1NCCC2O (racemic) [Compound 201, (+/-)-2-((7-fluoro-6-(8-hydroxy-4-methyl-5,6,7,8-tetrahydro-1,5-naphthyridin-3-yl)isoquinolin-3-yl)amino)-5,6-dihydro-4H-pyrazolo[1,5-d][1,4]diazepin-7(8H)-one formate salt] | 0.11 nM
8 | CN1CCc2cc(Nc3cc4cc(-c5cncc6c5CCC6O)c(F)cc4cn3)nn2CC1=O (racemic) [Compound 214, (+/-)-2-((7-fluoro-6-(7-hydroxy-6,7-dihydro-5H-cyclopenta[c]pyridin-4-yl)isoquinolin-3-yl)amino)-6-methyl-5,6-dihydro-4H-pyrazolo[1,5-d][1,4]diazepin-7(8H)-one] | 9 nM
9 | Cc1cc(C2CCCCO2)ncc1-c1cc2cc(Nc3cc4n(n3)CC(=O)N(C)CC4)ncc2cc1F (racemic) [Compound 218, (+/-)-2-((7-fluoro-6-(4-methyl-6-(tetrahydro-2H-pyran-2-yl)pyridin-3-yl)isoquinolin-3-yl)amino)-6-methyl-5,6-dihydro-4H-pyrazolo[1,5-d][1,4]diazepin-7(8H)-one] | 9 nM
10 | Cc1c(-c2cc3cc(Nc4ccn([C@H](C)C#N)n4)ncc3cc2F)cnc2c1NCCO2 (single isomer, unassigned) [Compound 109a, 2-(3-((7-fluoro-6-(8-methyl-2,3-dihydro-1H-pyrido[2,3-b][1,4]oxazin-7-yl)isoquinolin-3-yl)amino)-1H-pyrazol-1-yl)propanenitrile] | 2.17 nM
11 | Cc1c(-c2cc3cc(Nc4ccn([C@@H](C)C#N)n4)ncc3cc2F)cnc2c1NCCO2 (single isomer, unassigned) [Compound 109b, 2-(3-((7-fluoro-6-(8-methyl-2,3-dihydro-1H-pyrido[2,3-b][1,4]oxazin-7-yl)isoquinolin-3-yl)amino)-1H-pyrazol-1-yl)propanenitrile] | 1.19 nM
12 | Cc1c(-c2cc3cc(Nc4cc5n(n4)CC(=O)N(C(C)C)C[C@H]5O)ncc3cc2F)cnc2c1NCCO2 (single isomer, unassigned) [Compound 141a] | 0.033 nM
13 | Cc1c(-c2cc3cc(Nc4cc5n(n4)CC(=O)N(C(C)C)CC5O)ncc3cc2F)cnc2c1NCCO2 (single isomer, unassigned) [Compound 141b] | 0.018 nM
14 | Cc1c(-c2cc3cc(Nc4cc5n(n4)CC(=O)N([C@@H](C)C#N)CC5)ncc3cc2F)cnc2c1NCCO2 (single isomer, unassigned) [Compound 147a] | 0.014 nM
15 | Cc1c(-c2cc3cc(Nc4cc5n(n4)CC(=O)N(C(C)C#N)CC5)ncc3cc2F)cnc2c1NCCO2 (single isomer, unassigned) [Compound 147b] | 0.013 nM
16 | Cc1c(-c2cc3cc(Nc4cc5n(n4)CC(=O)N([C@@H](C)CO)CC5)ncc3cc2F)cnc2c1NCCO2 (single isomer, unassigned) [Compound 148a] | 0.013 nM
17 | Cc1c(-c2cc3cc(Nc4cc5n(n4)CC(=O)N(C(C)CO)CC5)ncc3cc2F)cnc2c1NCCO2 (single isomer, unassigned) [Compound 148b] | 0.013 nM

Row | Structure (SMILES) | Ki
18 | Cc1c(N)cncc1-c1cc2cc(Nc3cc4n(n3)CC(=O)N([C@@H](C)CO)CC4)ncc2cc1F (single isomer, unassigned) [Compound 149a] | 0.043 nM
19 | Cc1c(N)cncc1-c1cc2cc(Nc3cc4n(n3)CC(=O)N(C(C)CO)CC4)ncc2cc1F (single isomer, unassigned) [Compound 149b] | 0.019 nM
20 | Cc1c(N)cncc1-c1cc2cc(Nc3cc4n(n3)CC(=O)N(C(C)C)C[C@H]4O)ncc2cc1F (single isomer, unassigned) [Compound 153a] | 0.064 nM
21 | Cc1c(N)cncc1-c1cc2cc(Nc3cc4n(n3)CC(=O)N(C(C)C)CC4O)ncc2cc1F (single isomer, unassigned) [Compound 153b] | 0.075 nM
22 | Cc1c(N)cncc1-c1cc2cc(Nc3cc4n(n3)CC(=O)N([C@@H](C)C#N)CC4)ncc2cc1F (single isomer, unassigned) [Compound 154a] | 0.014 nM
23 | Cc1c(N)cncc1-c1cc2cc(Nc3cc4n(n3)CC(=O)N(C(C)C#N)CC4)ncc2cc1F (single isomer, unassigned) [Compound 154b] | 0.032 nM
24 | Cc1c(N)cncc1-c1cc2cc(Nc3cc4n(n3)CC(=O)N(C(C)(C)C)C[C@H]4F)ncc2cc1F (single isomer, unassigned) [Compound 167a] | 0.128 nM
25 | Cc1c(N)cncc1-c1cc2cc(Nc3cc4n(n3)CC(=O)N(C(C)(C)C)CC4F)ncc2cc1F (single isomer, unassigned) [Compound 167b] | 0.013 nM
26 | Cc1c(-c2cc3cc(Nc4cc5n(n4)CC(=O)N(C)CC5)ncc3cc2F)cnc2c1C(O)CCO2 (single isomer, unassigned) [Compound 180a, 2-((7-Fluoro-6-(4-hydroxy-5-methyl-3,4-dihydro-2H-pyrano[2,3-b]pyridine-6-yl)isoquinolin-3-yl)amino)-6-methyl-5,6-dihydro-4H-pyrazolo[1,5-d][1,4]diazepin-7(8H)-one] | 0.05 nM
27 | Cc1c(-c2cc3cc(Nc4cc5n(n4)CC(=O)N(C)CC5)ncc3cc2F)cnc2c1C(O)CCO2 (single isomer, unassigned) [Compound 180b, 2-((7-Fluoro-6-(4-hydroxy-5-methyl-3,4-dihydro-2H-pyrano[2,3-b]pyridine-6-yl)isoquinolin-3-yl)amino)-6-methyl-5,6-dihydro-4H-pyrazolo[1,5-d][1,4]diazepin-7(8H)-one] | 4.82 nM
28 | Cc1c(N)cncc1-c1cc2cc(Nc3cc4n(n3)CC(=O)N(C)C[C@@]4(C)O)ncc2cc1F (single isomer, unassigned) [Compound 185a] | 0.169 nM
29 | Cc1c(N)cncc1-c1cc2cc(Nc3cc4n(n3)CC(=O)N(C)CC4(C)O)ncc2cc1F (single isomer, unassigned) [Compound 185b] | 0.037 nM
30 | Cc1c(-c2cc3cc(Nc4cc5n(n4)CC(=O)N(C)CC54CC4)ncc3cc2F)cnc2c1NCC[C@H]2O (single isomer, unassigned) [Compound 205a] | 0.013 nM
31 | Cc1c(-c2cc3cc(Nc4cc5n(n4)CC(=O)N(C)CC54CC4)ncc3cc2F)cnc2c1NCC[C@@H]2O (single isomer, unassigned) [Compound 205b] | 0.013 nM
32 | CN[C@@H]1CCN(c2cc(C)c(-c3cc4cc(Nc5cc6n(n5)CC(=O)N(C)CC6)ncc4cc3F)cn2)C1 (single isomer, unassigned) [Compound 206a] | 6.7 nM
33 | CN[C@H]1CCN(c2cc(C)c(-c3cc4cc(Nc5cc6n(n5)CC(=O)N(C)CC6)ncc4cc3F)cn2)C1 (single isomer, unassigned) [Compound 206b] | 6.2 nM
34 | Cc1c(-c2cc3cc(Nc4cc5n(n4)CC(=O)N(C)CC5)ncc3cc2F)cnc2c1[C@@](C)(O)CCO2 (single isomer, unassigned) [Compound 226a] | 18 nM

Reference: patent US12378249B2, “Isoquinoline compounds and uses thereof” (Genentech, Inc., priority 2018, dated 2025)
